Among the data in ChEMBL document CHEMBL5465560, “Selectivity Literature for EUbOPEN Chemogenomic Library” (2024) are % of control, % of inhibition and % of engagement values, retold here.

Experiment [1] addresses T1, Mitogen-activated protein kinase kinase kinase 12 (Homo sapiens) (UniProt Q12852).
T1 sequence (whole entry): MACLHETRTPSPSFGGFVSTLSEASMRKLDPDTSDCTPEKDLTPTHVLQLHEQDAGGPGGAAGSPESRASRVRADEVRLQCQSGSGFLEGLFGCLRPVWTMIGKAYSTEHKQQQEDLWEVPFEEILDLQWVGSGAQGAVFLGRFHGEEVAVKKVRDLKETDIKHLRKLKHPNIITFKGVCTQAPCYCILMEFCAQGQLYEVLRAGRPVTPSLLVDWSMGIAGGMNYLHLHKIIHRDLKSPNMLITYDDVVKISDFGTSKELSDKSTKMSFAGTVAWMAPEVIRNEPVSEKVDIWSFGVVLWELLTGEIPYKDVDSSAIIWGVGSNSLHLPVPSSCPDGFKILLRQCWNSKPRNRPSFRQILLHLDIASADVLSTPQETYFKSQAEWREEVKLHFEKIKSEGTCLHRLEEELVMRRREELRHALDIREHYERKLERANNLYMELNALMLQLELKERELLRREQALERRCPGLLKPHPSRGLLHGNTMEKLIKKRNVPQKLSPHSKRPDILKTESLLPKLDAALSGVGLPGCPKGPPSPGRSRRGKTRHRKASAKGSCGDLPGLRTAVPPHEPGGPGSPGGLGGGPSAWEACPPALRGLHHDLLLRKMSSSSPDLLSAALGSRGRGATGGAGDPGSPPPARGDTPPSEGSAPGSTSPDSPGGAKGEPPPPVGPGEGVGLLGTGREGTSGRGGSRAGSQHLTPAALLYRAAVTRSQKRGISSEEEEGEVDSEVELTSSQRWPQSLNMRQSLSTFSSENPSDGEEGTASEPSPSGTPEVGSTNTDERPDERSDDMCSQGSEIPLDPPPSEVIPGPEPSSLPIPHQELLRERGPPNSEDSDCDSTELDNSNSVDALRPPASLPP
Briefly: Selectivity interaction (KinomeScan (DiscoverX)) EUB0001079a MAP3K12. As to conditions: at 1 µM.

The target of experiment [2] is Cyclin-dependent kinase-like 1 (Homo sapiens) (UniProt Q00532). Kind of experiment: Selectivity interaction (KinomeScan (DiscoverX)) EUB0000655a CDKL1. The settings on record: at 10 µM.
Cyclin-dependent kinase-like 1 (Homo sapiens), sequence (Q00532 whole entry): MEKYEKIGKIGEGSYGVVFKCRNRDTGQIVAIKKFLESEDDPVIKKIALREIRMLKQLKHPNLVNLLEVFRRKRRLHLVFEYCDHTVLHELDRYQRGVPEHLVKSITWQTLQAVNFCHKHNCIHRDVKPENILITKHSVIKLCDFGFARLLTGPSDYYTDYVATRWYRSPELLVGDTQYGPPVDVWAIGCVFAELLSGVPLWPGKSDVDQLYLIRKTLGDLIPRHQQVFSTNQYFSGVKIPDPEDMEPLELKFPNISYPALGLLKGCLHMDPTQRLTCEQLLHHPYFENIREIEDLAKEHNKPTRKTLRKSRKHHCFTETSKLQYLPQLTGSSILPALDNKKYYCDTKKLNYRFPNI
Experiment [3] concerns the target Mitogen-activated protein kinase 3 (Homo sapiens, UniProt P27361). Briefly: Selectivity interaction (Rxn Biology Kinase assay) EUB0001632a MAPK3. The settings on record: at 10 µM.
Experiment [4] addresses Cyclin-dependent kinase 12 (Homo sapiens, UniProt Q9NYV4). Kind of experiment: Selectivity interaction (ActivX KiNativ screen (kinase selectivity in THP-1 cell lysates)) EUB0000639a CDK12. It is filed as subcellular. The settings on record: lysate.
For experiment [5], the target named is Protein-tyrosine kinase 2-beta (Homo sapiens) (UniProt Q14289). Briefly: Selectivity interaction (ActivX KiNativ screen (kinase selectivity in THP-1 cell lysates)) EUB0000639a PTK2B. The settings on record: lysate. It is filed as subcellular.
Protein-tyrosine kinase 2-beta (Homo sapiens), sequence (Q14289 whole entry, looked up): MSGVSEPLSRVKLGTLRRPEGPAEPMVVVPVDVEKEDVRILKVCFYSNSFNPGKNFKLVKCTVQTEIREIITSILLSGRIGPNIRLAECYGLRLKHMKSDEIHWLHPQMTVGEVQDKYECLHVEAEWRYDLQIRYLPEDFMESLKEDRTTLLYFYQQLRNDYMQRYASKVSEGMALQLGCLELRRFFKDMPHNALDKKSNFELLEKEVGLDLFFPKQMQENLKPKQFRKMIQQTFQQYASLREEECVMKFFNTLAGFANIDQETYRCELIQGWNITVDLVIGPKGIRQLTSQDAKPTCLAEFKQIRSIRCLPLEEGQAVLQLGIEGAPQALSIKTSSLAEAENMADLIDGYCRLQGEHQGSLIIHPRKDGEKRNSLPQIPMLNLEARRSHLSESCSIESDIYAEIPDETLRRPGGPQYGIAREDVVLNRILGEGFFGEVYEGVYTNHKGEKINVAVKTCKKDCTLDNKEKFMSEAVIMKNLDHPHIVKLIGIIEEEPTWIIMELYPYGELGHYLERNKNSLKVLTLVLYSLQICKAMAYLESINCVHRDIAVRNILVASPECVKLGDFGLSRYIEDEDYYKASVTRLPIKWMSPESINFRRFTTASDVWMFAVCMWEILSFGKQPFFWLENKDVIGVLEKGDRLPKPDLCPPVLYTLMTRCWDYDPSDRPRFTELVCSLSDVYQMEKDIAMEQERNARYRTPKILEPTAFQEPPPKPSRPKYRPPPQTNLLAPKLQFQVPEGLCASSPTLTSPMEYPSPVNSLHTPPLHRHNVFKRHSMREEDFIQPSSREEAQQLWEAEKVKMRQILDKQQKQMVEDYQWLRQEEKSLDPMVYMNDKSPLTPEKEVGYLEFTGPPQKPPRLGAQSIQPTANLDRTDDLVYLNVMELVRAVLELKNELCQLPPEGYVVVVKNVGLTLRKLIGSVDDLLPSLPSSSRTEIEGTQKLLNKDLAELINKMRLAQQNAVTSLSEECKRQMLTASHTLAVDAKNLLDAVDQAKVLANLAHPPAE
For experiment [6], the target named is T2, Serine/threonine-protein kinase LATS2 (Homo sapiens) (UniProt Q9NRM7).
T2 sequence (whole entry): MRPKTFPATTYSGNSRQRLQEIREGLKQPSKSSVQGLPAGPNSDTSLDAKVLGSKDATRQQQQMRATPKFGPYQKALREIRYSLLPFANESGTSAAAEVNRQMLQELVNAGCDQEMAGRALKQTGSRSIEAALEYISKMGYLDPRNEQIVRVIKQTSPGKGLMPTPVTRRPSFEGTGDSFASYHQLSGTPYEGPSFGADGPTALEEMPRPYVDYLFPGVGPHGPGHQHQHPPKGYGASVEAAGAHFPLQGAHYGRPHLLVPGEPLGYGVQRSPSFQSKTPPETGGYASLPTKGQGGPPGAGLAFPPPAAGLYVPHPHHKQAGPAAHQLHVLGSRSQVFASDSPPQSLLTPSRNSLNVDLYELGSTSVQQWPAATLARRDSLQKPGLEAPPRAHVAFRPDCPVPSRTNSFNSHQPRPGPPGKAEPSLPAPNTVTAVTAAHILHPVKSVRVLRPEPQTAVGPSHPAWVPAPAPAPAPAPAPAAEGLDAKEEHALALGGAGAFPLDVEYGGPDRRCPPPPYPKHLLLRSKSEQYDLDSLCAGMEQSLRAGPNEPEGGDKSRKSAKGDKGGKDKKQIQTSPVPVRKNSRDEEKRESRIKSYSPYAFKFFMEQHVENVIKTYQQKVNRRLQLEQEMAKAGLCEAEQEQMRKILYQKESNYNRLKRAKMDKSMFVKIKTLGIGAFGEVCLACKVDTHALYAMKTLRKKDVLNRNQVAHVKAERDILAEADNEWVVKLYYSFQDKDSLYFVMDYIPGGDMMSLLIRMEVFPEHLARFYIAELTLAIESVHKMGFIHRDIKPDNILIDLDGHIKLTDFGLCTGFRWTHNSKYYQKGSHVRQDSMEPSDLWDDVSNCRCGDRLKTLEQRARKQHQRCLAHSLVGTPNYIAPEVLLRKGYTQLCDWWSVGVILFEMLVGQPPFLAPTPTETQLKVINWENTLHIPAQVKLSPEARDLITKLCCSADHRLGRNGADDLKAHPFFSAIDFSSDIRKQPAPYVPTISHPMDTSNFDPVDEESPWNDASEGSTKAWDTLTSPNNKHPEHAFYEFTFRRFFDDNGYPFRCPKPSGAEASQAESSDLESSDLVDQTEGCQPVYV
Briefly: Selectivity interaction (Kinase panel (KiNativ target engagement assay in Jurkat cells)) EUB0001635a LATS2. It is filed as cell-based. The settings on record: Selectivity number of off-targets 0.0, Selectivity number of targets 233.0, Source Knowledge https://www.sciencedirect.com/science/article/pii/S2451945619300674?via%3Dihub, at 1 µM.

Cyclin-dependent kinase 12, sequence (Q9NYV4 whole entry, looked up): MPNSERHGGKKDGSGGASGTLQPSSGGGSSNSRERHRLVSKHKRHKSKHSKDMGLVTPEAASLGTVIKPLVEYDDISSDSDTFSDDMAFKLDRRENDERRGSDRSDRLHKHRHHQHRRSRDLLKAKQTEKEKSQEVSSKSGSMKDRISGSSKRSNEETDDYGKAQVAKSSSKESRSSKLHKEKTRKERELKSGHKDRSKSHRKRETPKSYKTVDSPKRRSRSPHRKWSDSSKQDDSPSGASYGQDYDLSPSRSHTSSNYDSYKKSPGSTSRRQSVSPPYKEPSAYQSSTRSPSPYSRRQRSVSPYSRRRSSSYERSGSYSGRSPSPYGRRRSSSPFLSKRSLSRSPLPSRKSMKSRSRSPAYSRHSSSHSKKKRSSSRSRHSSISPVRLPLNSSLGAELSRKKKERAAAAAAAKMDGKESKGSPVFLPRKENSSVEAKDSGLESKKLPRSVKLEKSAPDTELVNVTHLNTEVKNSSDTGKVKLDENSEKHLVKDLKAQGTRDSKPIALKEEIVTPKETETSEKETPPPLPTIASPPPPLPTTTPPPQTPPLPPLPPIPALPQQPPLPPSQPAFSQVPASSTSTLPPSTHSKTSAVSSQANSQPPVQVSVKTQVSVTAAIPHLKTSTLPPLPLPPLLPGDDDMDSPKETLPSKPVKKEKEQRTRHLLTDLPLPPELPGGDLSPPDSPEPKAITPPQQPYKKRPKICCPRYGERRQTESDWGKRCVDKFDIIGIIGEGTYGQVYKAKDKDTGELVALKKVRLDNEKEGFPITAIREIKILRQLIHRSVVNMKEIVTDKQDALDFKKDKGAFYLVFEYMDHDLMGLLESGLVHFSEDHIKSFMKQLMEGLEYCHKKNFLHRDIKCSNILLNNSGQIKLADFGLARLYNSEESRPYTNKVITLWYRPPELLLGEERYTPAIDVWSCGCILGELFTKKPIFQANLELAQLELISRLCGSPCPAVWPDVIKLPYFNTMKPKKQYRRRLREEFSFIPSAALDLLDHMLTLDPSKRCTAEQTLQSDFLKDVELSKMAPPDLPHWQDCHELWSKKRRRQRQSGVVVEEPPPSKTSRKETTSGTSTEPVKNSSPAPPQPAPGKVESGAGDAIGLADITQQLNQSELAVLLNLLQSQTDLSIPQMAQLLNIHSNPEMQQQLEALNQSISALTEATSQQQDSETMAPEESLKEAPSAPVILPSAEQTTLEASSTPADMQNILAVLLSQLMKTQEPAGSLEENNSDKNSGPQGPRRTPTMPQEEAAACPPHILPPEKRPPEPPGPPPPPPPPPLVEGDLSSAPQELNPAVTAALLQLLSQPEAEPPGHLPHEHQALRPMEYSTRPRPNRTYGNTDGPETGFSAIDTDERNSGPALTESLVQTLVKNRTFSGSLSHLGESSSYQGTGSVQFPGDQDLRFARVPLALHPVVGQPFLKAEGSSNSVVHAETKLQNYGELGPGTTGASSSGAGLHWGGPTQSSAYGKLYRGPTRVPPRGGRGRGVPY
Mitogen-activated protein kinase 3, sequence (P27361 whole entry): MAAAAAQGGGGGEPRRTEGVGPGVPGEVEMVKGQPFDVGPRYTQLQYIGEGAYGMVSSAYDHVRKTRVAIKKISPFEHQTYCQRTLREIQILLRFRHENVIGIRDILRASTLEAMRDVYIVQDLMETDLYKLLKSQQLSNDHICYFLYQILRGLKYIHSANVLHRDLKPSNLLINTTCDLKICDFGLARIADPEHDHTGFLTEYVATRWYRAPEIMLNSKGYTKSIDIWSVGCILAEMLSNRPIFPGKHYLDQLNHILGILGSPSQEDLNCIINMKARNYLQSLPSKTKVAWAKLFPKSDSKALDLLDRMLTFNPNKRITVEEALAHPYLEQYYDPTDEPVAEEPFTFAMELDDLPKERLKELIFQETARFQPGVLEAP

Turning to `Nc1cnc(N2CCc3cc(S(=O)(=O)Nc4c(F)cc(Cl)cc4F)cc(N4CCCC4=O)c32)nc1` [TP-020n], the % of control in experiment [1] came out at 100%.

In turn, `CN(C)CCOc1ccc(-c2nc(-c3ccncc3)c(-c3ccc4c(c3)CC/C4=N\O)[nH]2)cc1` came in with a % of control in experiment [2] of 100%.

Take `Cn1cc(-n2cnc3c(NCc4nc5cc(Cl)c(Cl)cc5[nH]4)nc(N4CCOCC4)nc32)cn1`: the % of inhibition in experiment [3] was -5.84%.

Take `CC[C@@H]1[C@H](F)C(=O)N[C@@H]1COc1nccc2cc(C(N)=O)c(OC)cc12` [ZIMLOVISERTIB]: the % of inhibition in experiment [4] (at 0.01 µM) is -24.7%; in experiment [4] (at 0.04 µM) it was -15%; in experiment [4] (at 0.2 µM), -4.7%; in experiment [4] (at 1 µM) it was -15.6%; in experiment [4] (at 5 µM), -19.6%; in experiment [5] (at 0.01 µM) it was -13.4%. In addition, the % of inhibition in experiment [5] (at 0.04 µM) was 9.7%; in experiment [5] (at 0.2 µM), -2.6%; in experiment [5] (at 1 µM), -0.1%; in experiment [5] (at 5 µM), -10.1%.

On to `C=CC(=O)Nc1ccc(C(=O)Nc2[nH]nc3c2CN(C(=O)N[C@H](CN(C)C)c2ccccc2)C3(C)C)cc1`, for which the % of engagement in experiment [6] is -12.8%.
